Key:
[1] = molecular target: Vascular endothelial growth factor receptor 2 (Homo sapiens, UniProt P35968)
[2] = molecular target: Proto-oncogene tyrosine-protein kinase Src (Homo sapiens, UniProt P12931); test: Inhibition of Src
[3] = molecular target: Mitogen-activated protein kinase 14 (Homo sapiens, UniProt Q16539); test: Inhibition of p38alpha
[4] = molecular target: Tyrosine-protein kinase Lck (Homo sapiens, UniProt P06239)
Description: Inhibition of Lck in presence of 0.5 uM ATP by HTRF kinase assay

T-cell [5] = test: Inhibition of anti-CD3/CD28-induced IL2 secretion in human T cells; assay type: functional, cell-based
T-cell [6] = test: Inhibition of human T cell proliferation by mixed lymphocyte reaction; assay type: functional, cell-based
[7] = Cmax in Sprague-Dawley rat at 5 mg/kg, po; assay type: ADME, organism-based; design: dose 5 mg/kg, route oral; details: in vivo
[8] = Protein binding in human plasma; assay type: ADME, cell-free; details: read-out: PPB (converted)
[9] = molecular target: Tyrosine-protein kinase JAK2 (Homo sapiens, UniProt O60674)
T-cell [10] = test: Inhibition of anti-CD3/CD28-induced T cell proliferation; assay type: functional, cell-based; details: Homo sapiens
Mus musculus [11] = test: Inhibition of anti-CD3-induced IL2 production in BALB/c mouse at 10 mg/kg, po; assay type: functional
Jurkat = test: Antiproliferative activity against Jurkat cells; assay type: functional, cell-based; details: Homo sapiens
[12] = molecular target: Mitogen-activated protein kinase 10 (Homo sapiens, UniProt P53779)
[13] = molecular target: Tyrosine-protein kinase SYK (Homo sapiens, UniProt P43405); test: Inhibition of Syk
[14] = Clearance in Sprague-Dawley rat at 1 mg/kg, iv; assay type: ADME, organism-based; design: dose 1 mg/kg, route intravenous; details: in vivo
[15] = Bioavailability in Sprague-Dawley rat at 5 mg/kg, po; assay type: ADME, organism-based; details: in vivo
[16] = molecular target: Insulin-like growth factor 1 receptor (Homo sapiens, UniProt P08069)
Chain of Insulin-like growth factor 1 receptor (P08069 31-736 limits assumed): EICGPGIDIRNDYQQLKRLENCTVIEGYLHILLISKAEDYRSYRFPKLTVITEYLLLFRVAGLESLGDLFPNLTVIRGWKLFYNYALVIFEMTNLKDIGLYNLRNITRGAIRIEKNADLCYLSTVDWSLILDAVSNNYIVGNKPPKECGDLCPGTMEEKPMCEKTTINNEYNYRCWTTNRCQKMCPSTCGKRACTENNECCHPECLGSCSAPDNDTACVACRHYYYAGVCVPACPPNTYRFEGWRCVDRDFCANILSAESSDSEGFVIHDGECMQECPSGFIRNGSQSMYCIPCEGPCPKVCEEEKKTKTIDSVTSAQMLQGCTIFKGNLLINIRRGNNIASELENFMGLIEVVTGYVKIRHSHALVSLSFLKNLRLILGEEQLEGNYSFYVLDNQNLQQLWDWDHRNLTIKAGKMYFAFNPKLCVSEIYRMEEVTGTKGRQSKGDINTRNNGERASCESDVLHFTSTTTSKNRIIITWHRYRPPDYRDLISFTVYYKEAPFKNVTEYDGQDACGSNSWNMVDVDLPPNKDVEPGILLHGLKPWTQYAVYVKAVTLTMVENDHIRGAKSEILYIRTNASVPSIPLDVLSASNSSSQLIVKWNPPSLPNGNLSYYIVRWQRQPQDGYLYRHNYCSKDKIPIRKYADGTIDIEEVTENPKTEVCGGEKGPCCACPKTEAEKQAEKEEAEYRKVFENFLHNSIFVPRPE
Chain of Insulin-like growth factor 1 receptor (P08069 741-1367 limits assumed): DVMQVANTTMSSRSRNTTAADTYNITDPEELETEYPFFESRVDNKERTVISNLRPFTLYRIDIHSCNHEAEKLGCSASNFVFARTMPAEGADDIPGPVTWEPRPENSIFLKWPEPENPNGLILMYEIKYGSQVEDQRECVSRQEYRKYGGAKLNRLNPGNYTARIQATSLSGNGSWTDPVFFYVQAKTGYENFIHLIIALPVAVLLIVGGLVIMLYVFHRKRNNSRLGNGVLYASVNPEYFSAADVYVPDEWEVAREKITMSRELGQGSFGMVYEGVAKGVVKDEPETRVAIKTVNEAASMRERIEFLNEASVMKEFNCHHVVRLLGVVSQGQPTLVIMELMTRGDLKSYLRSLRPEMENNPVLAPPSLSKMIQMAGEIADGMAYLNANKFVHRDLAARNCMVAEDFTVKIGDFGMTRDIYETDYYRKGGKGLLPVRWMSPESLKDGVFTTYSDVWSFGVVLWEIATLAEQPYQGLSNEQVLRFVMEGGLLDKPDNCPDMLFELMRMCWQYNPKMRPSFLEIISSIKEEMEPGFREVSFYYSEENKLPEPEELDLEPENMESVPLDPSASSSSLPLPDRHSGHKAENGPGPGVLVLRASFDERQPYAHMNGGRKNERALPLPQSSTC

Homo sapiens = species on record: Homo sapiens; test: Inhibition of anti-CD3/CD28-induced IL2 secretion in human whole blood T cell; assay type: functional
[17] = AUC (0-infinity) in Sprague-Dawley rat at 1 mg/kg, iv; assay type: ADME, organism-based; design: time infinity, dose 1 mg/kg, route intravenous; details: plasma
[18] = molecular target: T1, Tyrosine-protein kinase JAK3 (Homo sapiens, UniProt P52333)
T1 sequence (P52333 whole entry): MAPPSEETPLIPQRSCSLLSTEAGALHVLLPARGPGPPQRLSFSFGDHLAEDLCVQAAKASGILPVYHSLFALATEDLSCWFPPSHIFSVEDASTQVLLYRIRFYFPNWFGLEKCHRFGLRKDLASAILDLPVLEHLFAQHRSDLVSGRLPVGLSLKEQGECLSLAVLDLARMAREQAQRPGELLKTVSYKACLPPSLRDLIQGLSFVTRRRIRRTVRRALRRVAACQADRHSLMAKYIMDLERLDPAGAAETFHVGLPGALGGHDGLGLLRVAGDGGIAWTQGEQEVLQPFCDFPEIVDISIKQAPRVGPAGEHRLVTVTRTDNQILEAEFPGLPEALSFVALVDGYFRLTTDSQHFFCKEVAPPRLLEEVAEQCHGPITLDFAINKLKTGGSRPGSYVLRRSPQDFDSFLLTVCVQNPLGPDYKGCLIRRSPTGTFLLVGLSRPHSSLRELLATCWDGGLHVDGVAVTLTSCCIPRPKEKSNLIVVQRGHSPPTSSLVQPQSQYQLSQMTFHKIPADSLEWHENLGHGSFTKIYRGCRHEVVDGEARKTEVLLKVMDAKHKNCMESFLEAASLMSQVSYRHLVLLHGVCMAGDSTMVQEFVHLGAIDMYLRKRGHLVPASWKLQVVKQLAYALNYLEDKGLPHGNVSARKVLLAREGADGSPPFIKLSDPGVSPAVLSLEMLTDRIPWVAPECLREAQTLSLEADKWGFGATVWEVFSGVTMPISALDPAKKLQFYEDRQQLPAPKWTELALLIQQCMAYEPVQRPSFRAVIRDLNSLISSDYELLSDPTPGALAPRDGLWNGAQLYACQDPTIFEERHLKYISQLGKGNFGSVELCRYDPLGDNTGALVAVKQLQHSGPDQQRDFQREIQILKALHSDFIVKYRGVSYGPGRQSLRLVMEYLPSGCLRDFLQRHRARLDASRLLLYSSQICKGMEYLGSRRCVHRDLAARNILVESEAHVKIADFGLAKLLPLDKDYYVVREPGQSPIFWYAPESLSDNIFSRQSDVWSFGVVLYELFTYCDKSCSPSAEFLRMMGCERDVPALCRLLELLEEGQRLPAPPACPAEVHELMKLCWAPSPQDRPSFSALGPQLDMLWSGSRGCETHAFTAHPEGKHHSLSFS

[19] = Half life in Sprague-Dawley rat at 1 mg/kg, iv; assay type: ADME, organism-based; design: dose 1 mg/kg, route intravenous; details: in vivo
[20] = Volume of distribution in Sprague-Dawley rat at 1 mg/kg, iv; assay type: ADME, organism-based; design: dose 1 mg/kg, route intravenous; details: in vivo, read-out: Vss
T-cell [21] = test: Inhibition of T cell receptor zeta chain phosphorylation; assay type: functional, cell-based; details: Homo sapiens
[22] = molecular target: Protein kinase C theta type (Homo sapiens, UniProt Q04759); test: Inhibition of PKCtheta
Chain of Protein kinase C theta type (Q04759 whole entry): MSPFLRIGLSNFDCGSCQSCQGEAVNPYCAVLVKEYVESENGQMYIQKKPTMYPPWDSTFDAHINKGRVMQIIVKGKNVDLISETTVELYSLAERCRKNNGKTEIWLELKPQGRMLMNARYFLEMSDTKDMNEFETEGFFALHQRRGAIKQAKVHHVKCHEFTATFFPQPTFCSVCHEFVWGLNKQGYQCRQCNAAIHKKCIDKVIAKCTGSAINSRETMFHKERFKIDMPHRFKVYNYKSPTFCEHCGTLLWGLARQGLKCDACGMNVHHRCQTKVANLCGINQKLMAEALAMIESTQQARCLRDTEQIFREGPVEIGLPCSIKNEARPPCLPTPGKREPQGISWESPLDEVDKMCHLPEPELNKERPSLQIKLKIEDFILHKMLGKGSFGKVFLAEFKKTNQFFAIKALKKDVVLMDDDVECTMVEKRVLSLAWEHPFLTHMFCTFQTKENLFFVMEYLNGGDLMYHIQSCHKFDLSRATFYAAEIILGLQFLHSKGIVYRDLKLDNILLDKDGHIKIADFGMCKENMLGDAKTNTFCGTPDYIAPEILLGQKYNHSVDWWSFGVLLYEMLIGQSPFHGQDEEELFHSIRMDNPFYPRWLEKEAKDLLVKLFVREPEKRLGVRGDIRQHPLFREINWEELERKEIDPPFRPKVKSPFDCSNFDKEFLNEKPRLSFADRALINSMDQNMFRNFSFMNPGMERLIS

T-cell [23] = test: Inhibition of anti-CD3/CD28-induced IL2 secretion in T cells stimulated with phorbol myristic acid and calcium ionophore; assay type: functional, cell-based; details: Homo sapiens
[24] = AUC (0-infinity) in Sprague-Dawley rat at 5 mg/kg, po; assay type: ADME, organism-based; design: time infinity, dose 5 mg/kg, route oral; details: plasma
Mus musculus [25] = test: Inhibition of anti-CD3-induced IL2 production in BALB/c mouse at 100 mg/kg, po; assay type: functional
[26] = Protein binding in rat plasma; assay type: ADME, cell-free; details: read-out: PPB (converted)
[27] = Tmax in Sprague-Dawley rat at 5 mg/kg, po; assay type: ADME, organism-based; design: dose 5 mg/kg, route oral; details: in vivo
[28] = molecular target: Cyclin-dependent kinase 2 (Homo sapiens, UniProt P24941); test: Inhibition of CDK2
[29] = molecular target: Tyrosine-protein kinase BTK (Homo sapiens, UniProt Q06187)
Mus musculus [30] = test: Inhibition of anti-CD3-induced IL2 production in BALB/c mouse at 30 mg/kg, po; assay type: functional

Chain of Tyrosine-protein kinase Lck (P06239 whole entry): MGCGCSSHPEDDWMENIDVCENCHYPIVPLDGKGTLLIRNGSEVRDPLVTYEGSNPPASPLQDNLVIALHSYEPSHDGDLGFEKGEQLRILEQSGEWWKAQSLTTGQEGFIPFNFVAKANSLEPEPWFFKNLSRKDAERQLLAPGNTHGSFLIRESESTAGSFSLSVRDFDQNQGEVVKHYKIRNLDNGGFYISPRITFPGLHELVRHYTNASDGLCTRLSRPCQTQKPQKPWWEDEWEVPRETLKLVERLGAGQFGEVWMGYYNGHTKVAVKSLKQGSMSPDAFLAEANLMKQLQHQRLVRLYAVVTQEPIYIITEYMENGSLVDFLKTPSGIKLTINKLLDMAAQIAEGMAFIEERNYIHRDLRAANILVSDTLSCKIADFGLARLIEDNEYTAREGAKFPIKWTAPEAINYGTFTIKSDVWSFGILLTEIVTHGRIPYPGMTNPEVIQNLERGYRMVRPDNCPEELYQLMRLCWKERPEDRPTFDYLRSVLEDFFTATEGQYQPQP
Chain of Mitogen-activated protein kinase 14 (Q16539 whole entry): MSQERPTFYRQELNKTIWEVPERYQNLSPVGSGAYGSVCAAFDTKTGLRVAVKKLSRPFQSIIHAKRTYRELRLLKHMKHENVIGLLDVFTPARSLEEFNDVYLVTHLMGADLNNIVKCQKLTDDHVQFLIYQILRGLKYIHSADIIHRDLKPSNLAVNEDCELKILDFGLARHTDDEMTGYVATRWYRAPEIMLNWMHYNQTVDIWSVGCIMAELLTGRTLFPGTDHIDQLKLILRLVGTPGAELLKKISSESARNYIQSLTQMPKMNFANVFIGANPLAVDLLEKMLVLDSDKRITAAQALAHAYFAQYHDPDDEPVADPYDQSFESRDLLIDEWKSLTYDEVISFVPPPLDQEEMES
Chain of Vascular endothelial growth factor receptor 2 (P35968 whole entry): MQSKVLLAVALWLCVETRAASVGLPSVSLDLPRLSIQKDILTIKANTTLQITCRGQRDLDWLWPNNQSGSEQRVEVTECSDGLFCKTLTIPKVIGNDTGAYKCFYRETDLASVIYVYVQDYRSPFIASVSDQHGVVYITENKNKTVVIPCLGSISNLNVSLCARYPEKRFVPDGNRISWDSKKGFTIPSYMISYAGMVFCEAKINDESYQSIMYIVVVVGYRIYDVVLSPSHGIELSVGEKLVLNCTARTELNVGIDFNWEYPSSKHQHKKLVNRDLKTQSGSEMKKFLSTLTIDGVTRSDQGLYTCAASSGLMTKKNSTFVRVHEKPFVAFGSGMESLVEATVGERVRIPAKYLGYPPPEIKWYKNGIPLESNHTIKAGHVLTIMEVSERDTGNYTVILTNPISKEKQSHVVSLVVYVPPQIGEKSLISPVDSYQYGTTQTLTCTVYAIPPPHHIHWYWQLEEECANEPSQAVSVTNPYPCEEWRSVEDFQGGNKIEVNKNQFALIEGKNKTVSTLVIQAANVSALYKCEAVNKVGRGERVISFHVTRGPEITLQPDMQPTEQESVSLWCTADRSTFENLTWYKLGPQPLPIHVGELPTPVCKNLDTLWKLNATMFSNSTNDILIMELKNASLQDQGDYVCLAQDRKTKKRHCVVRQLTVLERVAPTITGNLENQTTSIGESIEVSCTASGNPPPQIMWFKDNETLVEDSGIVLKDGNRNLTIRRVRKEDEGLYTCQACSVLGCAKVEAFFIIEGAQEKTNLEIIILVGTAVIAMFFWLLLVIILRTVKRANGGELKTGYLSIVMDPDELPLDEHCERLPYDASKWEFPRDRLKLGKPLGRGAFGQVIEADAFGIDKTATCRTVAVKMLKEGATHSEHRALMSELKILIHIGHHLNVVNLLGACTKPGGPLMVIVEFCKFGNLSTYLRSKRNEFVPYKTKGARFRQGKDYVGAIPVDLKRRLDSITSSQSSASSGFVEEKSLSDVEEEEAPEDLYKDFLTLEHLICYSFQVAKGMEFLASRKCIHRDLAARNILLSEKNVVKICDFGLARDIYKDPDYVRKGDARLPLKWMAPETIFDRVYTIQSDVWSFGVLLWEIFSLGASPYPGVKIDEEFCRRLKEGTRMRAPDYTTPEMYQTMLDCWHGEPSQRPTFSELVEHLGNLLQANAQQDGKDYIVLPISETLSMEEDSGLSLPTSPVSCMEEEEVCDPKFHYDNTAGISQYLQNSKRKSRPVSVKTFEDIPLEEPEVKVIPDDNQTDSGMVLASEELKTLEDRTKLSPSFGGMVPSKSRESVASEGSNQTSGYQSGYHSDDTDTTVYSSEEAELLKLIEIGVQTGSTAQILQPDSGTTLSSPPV
Chain of Proto-oncogene tyrosine-protein kinase Src (P12931 2-536 limits assumed): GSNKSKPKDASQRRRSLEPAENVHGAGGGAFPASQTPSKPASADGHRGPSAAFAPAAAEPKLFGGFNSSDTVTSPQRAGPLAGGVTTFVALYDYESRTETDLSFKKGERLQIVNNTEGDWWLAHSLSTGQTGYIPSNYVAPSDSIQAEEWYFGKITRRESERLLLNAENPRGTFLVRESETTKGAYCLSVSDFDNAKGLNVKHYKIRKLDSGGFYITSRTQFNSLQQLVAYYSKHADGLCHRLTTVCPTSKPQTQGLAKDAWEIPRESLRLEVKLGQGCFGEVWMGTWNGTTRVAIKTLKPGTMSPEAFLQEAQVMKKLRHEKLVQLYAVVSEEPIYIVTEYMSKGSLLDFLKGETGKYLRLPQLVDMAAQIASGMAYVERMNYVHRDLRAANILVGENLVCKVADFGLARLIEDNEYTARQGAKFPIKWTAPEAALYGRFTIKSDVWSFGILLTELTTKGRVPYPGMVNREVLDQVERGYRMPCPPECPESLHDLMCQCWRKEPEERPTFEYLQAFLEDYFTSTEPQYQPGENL

Cc1cccc(C)c1OC(=O)N(c1ccc(-c2ccccc2)cc1)c1ccnc(Nc2ccc(N3CCN(C)CC3)cc2)n1
IC50 [1]: 590 nM | IC50 [2]: 98 nM | IC50 [3]: 1800 nM | IC50 [4]: 13 nM

COc1ccccc1N(C(=O)Oc1c(C)cccc1C)c1ccnc(Nc2ccc(N3CCN(C)CC3)cc2)n1
IC50 [1]: 190 nM | IC50 [2]: 4 nM | IC50 [3]: 420 nM | IC50 [4]: 1 nM

COc1ccc(N(C(=O)Oc2c(C)cccc2C)c2ccnc(Nc3ccc(N4CCN(C)CC4)c(F)c3)n2)c(OC)c1
IC50 [1]: 260 nM | IC50 [2]: 2 nM | IC50 (T-cell [5]): 200 nM | IC50 [3]: 1000 nM | IC50 [4]: 1 nM

COc1ccc(N(C(=O)Oc2c(C)cccc2C)c2ccnc(Nc3cc(OC)c(OCCN4CCN(C)CC4)c(OC)c3)n2)c(OC)c1
IC50 [1]: 230 nM | IC50 [2]: 1 nM | IC50 (T-cell [5]): 290 nM | IC50 [3]: 180 nM | IC50 [4]: 1 nM

COc1ccc(N(C(=O)Oc2c(C)cccc2C)c2ccnc(Nc3ccc(OCCN(C)C)cc3)n2)c(OC)c1
IC50 [1]: 220 nM | IC50 [2]: 4 nM | IC50 (T-cell [5]): 270 nM | IC50 [3]: 2100 nM | IC50 [4]: 1 nM

COc1ccc(N(C(=O)Oc2c(C)cccc2C)c2ccnc(Nc3ccc(N4CCN(C)CC4)cc3)n2)c(OC)c1
IC50 [1]: 640 nM | IC50 [2]: 6 nM | IC50 (T-cell [5]): 1900 nM | IC50 [3]: 1300 nM | IC50 [4]: 2 nM

COc1ccc(N(C(=O)Oc2c(C)cccc2C)c2ccnc(Nc3ccc(OCCCN(C)C)cc3)n2)c(OC)c1
IC50 [1]: 230 nM | IC50 [2]: 4 nM | IC50 (T-cell [5]): 230 nM | IC50 [3]: 2100 nM | IC50 [4]: 1 nM

COc1ccc(N(C(=O)Oc2c(C)cccc2C)c2ccnc(Nc3ccc(OCCCN4CCN(C)CC4)c(F)c3)n2)c(OC)c1
IC50 [1]: 590 nM | IC50 [2]: 5 nM | IC50 (T-cell [5]): 510 nM | IC50 [3]: 1300 nM | IC50 [4]: 1 nM

COc1ccc(N(C(=O)Oc2c(C)cccc2C)c2ccnc(Nc3ccc(OCCCN4CCCCC4)c(F)c3)n2)c(OC)c1
IC50 [1]: 620 nM | IC50 [2]: 12 nM | IC50 (T-cell [5]): 860 nM | IC50 [3]: 6800 nM | IC50 [4]: 2 nM

Cc1cccc(C)c1OC(=O)N(c1cccc(-c2ccccc2)c1)c1ccnc(Nc2ccc(N3CCN(C)CC3)cc2)n1
IC50 [1]: 1900 nM | IC50 [2]: 500 nM | IC50 [3]: 8000 nM | IC50 [4]: 49 nM

COc1ccc(N(C(=O)Oc2c(C)cccc2C)c2ccnc(Nc3ccc(N4CCN(C)CC4)c(OC)c3)n2)c(OC)c1
IC50 [1]: 140 nM | IC50 [2]: 2 nM | IC50 (T-cell [5]): 140 nM | IC50 [3]: 440 nM | IC50 [4]: 1 nM

COc1ccc(N(C(=O)Oc2c(C)cccc2C)c2ccnc(Nc3ccc(N4CCN(C)CC4)cc3)n2)cc1
IC50 [1]: 420 nM | IC50 [2]: 3 nM | IC50 [3]: 320 nM | IC50 [4]: 12 nM

Cc1cccc(C)c1OC(=O)N(c1ccnc(Nc2ccc(N3CCN(C)CC3)cc2)n1)c1ccc(F)cc1OC(C)C
IC50 [1]: 4800 nM | IC50 [2]: 13 nM | IC50 [3]: 1200 nM | IC50 [4]: 1 nM

COc1ccc(N(C(=O)Oc2c(C)cccc2C)c2ccnc(Nc3cc(OC)c(OCCN4CCOCC4)c(OC)c3)n2)c(OC)c1
IC50 [1]: 170 nM | IC50 [2]: 2 nM | IC50 (T-cell [5]): 410 nM | IC50 [3]: 1200 nM | IC50 [4]: 1 nM

Cc1cccc(C)c1OC(=O)N(c1ccc2ccccc2c1)c1ccnc(Nc2ccc(N3CCN(C)CC3)cc2)n1
IC50 [1]: 130 nM | IC50 [2]: 14 nM | IC50 [3]: 740 nM | IC50 [4]: 10 nM

COc1ccc(N(C(=O)Oc2c(C)cccc2C)c2ccnc(Nc3ccc(OCCCN4CCN(C)CC4)c(OC)c3)n2)c(OC)c1
IC50 [1]: 210 nM | IC50 [2]: 2 nM | IC50 (T-cell [5]): 100 nM | IC50 [3]: 2300 nM | IC50 [4]: 1 nM

COc1ccc(N(C(=O)Oc2c(C)cccc2C)c2ccnc(Nc3cc(OC)c(N4CCN(C)CC4)c(OC)c3)n2)c(OC)c1
IC50 [1]: 170 nM | IC50 [2]: 1 nM | IC50 (T-cell [6]): 590 nM | IC50 [3]: 430 nM | IC50 [4]: 1 nM

COc1ccc(N(C(=O)Oc2c(C)cccc2C)c2ccnc(Nc3cc(OC)c(OCCCN4CCN(C)CC4)c(OC)c3)n2)c(OC)c1
Cmax [7]: 22 ng/mL | fraction unbound [8]: 0.013 | IC50 [9]: 240 nM | IC50 (T-cell [10]): 490 nM | inhibition in vivo at 10 mg/kg (Mus musculus [11]): 11% | IC50 (Jurkat): 1700 nM | IC50 [12]: > 5000 nM | IC50 [13]: 200 nM | clearance [14]: 30.5 mL/min/kg | bioavailability [15]: 6% | IC50 [16]: > 25000 nM | IC50 (Homo sapiens): 3000 nM | IC50 [2]: 1 nM | AUC(0-inf) [17]: 568 ng·h/mL | IC50 [18]: 1200 nM | IC50 (T-cell [5]): 61 nM | half-life [19]: 4.6 h | Vd [20]: 11.3 L/kg | IC50 (T-cell [21]): 780 nM | IC50 [22]: > 5000 nM | IC50 (T-cell [23]): 1800 nM | AUC(0-inf) [24]: 175 ng·h/mL | inhibition in vivo at 100 mg/kg (Mus musculus [25]): 60% | fraction unbound [26]: 0.016 | Tmax [27]: 4 h | IC50 [28]: > 40000 nM | IC50 [3]: 530 nM | IC50 [29]: 100 nM | inhibition in vivo at 30 mg/kg (Mus musculus [30]): 21%

Cc1cccc(C)c1OC(=O)N(c1ccccc1)c1ccnc(Nc2ccc(N3CCN(C)CC3)cc2)n1
IC50 [1]: 190 nM | IC50 [2]: 10 nM | IC50 [3]: 160 nM | IC50 [4]: 14 nM
